From patent US12441690B2, “Benzamide derivative compound, method for preparing same, and pharmaceutical composition for treating or preventing inflammatory disease containing same as active ingredient” (SEOUL NATIONAL UNIVERSITY R&DB FOUNDATION, priority 2017, dated 2025) come the findings set out here.

Molecules are shown by their SMILES. A value given as a limit tells only on which side of the number the result lay.

PDE4B enzyme, sequence (Q07343 whole entry): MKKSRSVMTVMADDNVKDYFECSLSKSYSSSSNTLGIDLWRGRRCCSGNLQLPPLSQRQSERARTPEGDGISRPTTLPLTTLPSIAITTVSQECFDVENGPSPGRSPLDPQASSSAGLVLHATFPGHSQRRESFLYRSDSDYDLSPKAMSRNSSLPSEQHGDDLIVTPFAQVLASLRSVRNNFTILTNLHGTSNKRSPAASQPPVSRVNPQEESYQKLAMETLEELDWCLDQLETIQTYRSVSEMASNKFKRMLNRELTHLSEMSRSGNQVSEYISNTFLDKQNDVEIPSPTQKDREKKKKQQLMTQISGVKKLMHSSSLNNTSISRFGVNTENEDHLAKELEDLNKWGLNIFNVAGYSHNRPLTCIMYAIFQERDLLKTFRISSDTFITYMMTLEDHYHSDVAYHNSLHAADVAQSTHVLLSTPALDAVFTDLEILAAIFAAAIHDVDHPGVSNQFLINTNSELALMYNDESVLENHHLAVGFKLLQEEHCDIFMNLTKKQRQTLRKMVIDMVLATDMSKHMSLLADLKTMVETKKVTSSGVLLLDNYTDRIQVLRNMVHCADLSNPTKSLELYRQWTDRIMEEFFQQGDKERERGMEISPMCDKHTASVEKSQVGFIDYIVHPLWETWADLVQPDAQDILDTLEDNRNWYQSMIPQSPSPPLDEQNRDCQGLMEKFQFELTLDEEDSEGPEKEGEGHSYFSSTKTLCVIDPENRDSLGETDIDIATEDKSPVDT

In the assay the target is PDE4B enzyme (Homo sapiens (Human), UniProt Q07343). In words: PDE4B inhibitory activity, LANCE Ultra cAMP assay. Type of assay: biochemical. To be noted: 50% inhibition from cAMP to 5′AMP. The protocol:
In order to evaluate the PDE4B inhibitory activity of the compounds according to the present invention, the following experiment was performed using LANCE Ultra cAMP assay kit (Perkin Elmer, U.S.A).
Particularly, 5 μl of the 3 nM cAMP dissolved reaction buffer was added to each reaction well (LANCE Ultra cAMP assay kit). Then, each example compound dilution solution (2.5 μl) and PDE4B enzyme (0.1 ng/well, BPS Biosciences, San Diego, U.S.A) were added to the well, followed by incubation for 1 hour at 37° C. Next, 5 μl of ULight-anti-cAMP detection reactant supplemented with 5 μl of Eu-cAMP tracer and 1 mM IBMX (LANCE Ultra cAMP assay kit) was added thereto, followed by incubation for 1 hour at 37° C.
A general note: TR-FRET usually uses a lanthanide donor and a delayed reading to cut background.
With `COc1ccc(-c2nc(C(F)(F)F)ncc2C(=O)Nc2cc(C(C)C)c(N)c(C(C)C)c2)cc1OC` [Example 21, N-(4-amino-3,5-diisopropylphenyl)-4-(3,4-dimethoxyphenyl)-2-(trifluoromethyl)pyrimidine-5-carboxamide], half-maximal inhibition (IC50) required 0.222 µM.

In turn, `COc1ccc(NC(=O)c2cnc(SC)nc2-c2ccc(OC)c(OC)c2)cc1OC` [Example 29, N,4-bis(3,4-dimethoxyphenyl)-2-(methylthio)pyrimidine-5-carboxamide] registered an IC50 of 0.634 µM.

Take `COc1ccc(-c2nc(C(F)(F)F)ncc2C(=O)NC2CCOCC2)cc1OC` [Example 12, 4-(3,4-dimethoxyphenyl)-N-(tetrahydro-2H-pyran-4-yl)-2-(trifluoromethyl)pyrimidine-5-carboxamide]: the IC50 is 0.266 µM.

`COc1ccc(-c2nc(SC)ncc2C(=O)NCCN2CCOCC2)cc1OC` [Example 27, 4-(3,4-dimethoxyphenyl)-2-(methylthio)-N-(2-morpholinoethyl)pyrimidine-5-carboxamide] showed an IC50 of 0.86 µM.

Turning to `COc1ccc(-c2nc(SC)ncc2C(=O)Nc2ccncc2)cc1OC` [Example 3, 4-(3,4-dimethoxyphenyl)-2-(methylthio)-N-(pyridine-4-yl)pyrimidine-5-carboxamide], the IC50 amounted to 0.095 µM.

`COc1ccc(-c2nc(S(C)(=O)=O)ncc2C(=O)NC2CC2)cc1OC` [Example 19, N-cyclopropyl-4-(3,4-dimethoxyphenyl)-2-(methylsulfonyl)pyrimidine-5-carboxamide]: the IC50 was 0.189 µM.

Take `CSc1ncc(C(=O)Nc2ccc(F)cc2)c(N2CCOCC2)n1` [Example 6, N-(4-fluorophenyl)-2-(methylthio)-4-morpholinopyrimidine-5-carboxamide]: the IC50 is 0.367 µM.

Consider `COc1ccc(-c2nc(SC)ncc2C(=O)Nc2cc(C(C)C)c(N)c(C(C)C)c2)cc1OC` [Example 20, N-(4-amino-3,5-diisopropylphenyl)-4-(3,4-dimethoxyphenyl)-2-(methylthio)pyrimidine-5-carboxamide], for which inhibition was half-maximal at 0.745 µM (IC50).

`CSc1ncc(C(=O)NCCc2c[nH]c3ccccc23)c(N2CCOCC2)n1` [Example 4, N-(2-(1H-indole-3-yl)ethyl)-2-(methylthio)-4-morpholinopyrimidine-5-carboxamide] had an IC50 of 0.166 µM.

In turn, `COc1ccc(-c2nc(C(F)(F)F)ncc2C(=O)NC2CC2)cc1OC` [Example 15, N-cyclopropyl-4-(3,4-dimethoxyphenyl)-2-(trifluoromethyl)pyrimidine-5-carboxamide] had an IC50 of 0.252 µM.

In turn, `COc1ccc(-c2nc(C(F)(F)F)ncc2C(=O)Nc2c(Cl)cncc2Cl)cc1OC` [Example 16, N-(3,5-dichloropyridine-4-yl)-4-(3,4-dimethoxyphenyl)-2-(trifluoromethyl)pyrimidine-5-carboxamide] registered an IC50 of 0.044 µM.

Compound `CSc1ncc(C(=O)Nc2c(Cl)cncc2Cl)c(N2CCOCC2)n1` [Example 10, N-(3,5-dichloropyridine-4-yl)-2-(methylthio)-4-morpholinopyrimidine-5-carboxamide] yielded an IC50 of 0.073 µM.

Take `COc1ccc(NC(=O)c2cnc(C(F)(F)F)nc2N2CCOCC2)cc1OC` [Example 11, N-(3,4-dimethoxyphenyl)-4-morpholino-2-(trifluoromethyl)pyrimidine-5-carboxamide]: it took 0.067 µM to reach half-maximal inhibition (IC50).

Compound `COc1ccc(-c2nc(C(F)(F)F)ncc2C(=O)NCCN2CCOCC2)cc1OC` [Example 26, 4-(3,4-dimethoxyphenyl)-N-(2-morpholinoethyl)-2-(trifluoromethyl)pyrimidine-5-carboxamide] showed an IC50 of 0.195 µM.

The compound `COc1ccc(-c2nc(S(C)(=O)=O)ncc2C(=O)NC2CCOCC2)cc1OC` [Example 14, 4-(3,4-dimethoxyphenyl)-2-(methylsulfonyl)-N-(tetrahydro-2H-pyran-4-yl)pyrimidine-5-carboxamide] displayed an IC50 of 0.506 µM.

Turning to `CCN(CC)C(=O)c1cnc(C(F)(F)F)nc1-c1ccc(OC)c(OC)c1` [Example 13, 4-(3,4-dimethoxyphenyl)-N,N-diethyl-2-(trifluoromethyl)pyrimidine-5-carboxamide], it took 0.833 µM to reach half-maximal inhibition (IC50).

Consider `COc1ccc(CNC(=O)c2cnc(C(F)(F)F)nc2N2CCOCC2)c(OC)c1` [Example 8, N-(2,4-dimethoxybenzyl)-4-morpholino-2-(trifluoromethyl)pyrimidine-5-carboxamide], for which half-maximal inhibition (IC50) was put at 0.074 µM.

`COc1ccc(CNC(=O)c2cnc(SC)nc2N2CCOCC2)c(OC)c1` [Example 9, N-(2,4-dimethoxybenzyl)-2-(methylthio)-4-morpholinopyrimidine-5-carboxamide] yielded an IC50 of 0.377 µM.

Consider `COc1ccc(-c2nc(SC)ncc2C(=O)NC2CC2)cc1OC` [Example 18, N-cyclopropyl-4-(3,4-dimethoxyphenyl)-2-(methylthio)pyrimidine-5-carboxamide], for which the IC50 came out at 0.477 µM.

`COc1ccc(NC(=O)c2cnc(C(F)(F)F)nc2-c2ccc(OC)c(OC)c2)cc1OC` [Example 30, N,4-bis(3,4-dimethoxyphenyl)-2-(trifluoromethyl)pyrimidine-5-carboxamide] gave an IC50 of 0.061 µM.

`O=C(NCCc1c[nH]c2ccccc12)c1cnc(C(F)(F)F)nc1N1CCOCC1` [Example 24, N-(2-(1H-indole-3-yl)ethyl)-4-morpholino-2-(trifluoromethyl)pyrimidine-5-carboxamide] had an IC50 of 0.469 µM.

The compound `COc1ccc(-c2nc(SC)ncc2C(=O)NC2CCOCC2)cc1OC` [Example 5, 4-(3,4-dimethoxyphenyl)-2-(methylthio)-N-(tetrahydro-2H-pyran-4-yl)pyrimidine-5-carboxamide] displayed an IC50 of 0.239 µM.

In turn, `COc1ccc(-c2nc(SC)ncc2C(=O)Nc2c(Cl)cncc2Cl)cc1OC` [Example 2, N-(3,5-dichloropyridine-4-yl)-4-(3,4-dimethoxyphenyl)-2-(methylthio)pyrimidine-5-carboxamide] registered an IC50 of 0.178 µM.

Compound `COc1ccc(NC(=O)c2cnc(SC)nc2N2CCN(CCO)CC2)cc1OC` [Example 22, N-(3,4-dimethoxyphenyl)-4-(4-(2-hydroxyethyl)piperazine-1-yl)-2-(methylthio)pyrimidine-5-carboxamide] came in with an IC50 of 0.881 µM.

Compound `COc1ccc(CCNC(=O)c2cnc(SC)nc2N2CCOCC2)cc1OC` [Example 7, N-(3,4-dimethoxyphenetyl)-2-(methylthio)-4-morpholinopyrimidine-5-carboxamide] showed an IC50 of less than 0.01 µM.

A word on the IC50: it is the concentration at which inhibition is half-maximal. Lower therefore signals greater potency.
